We go through eight compounds from patent publication US5989846A, “Assays to identify inducers of plant defense resistance” (Rutgers, The State University of New Jersey, priority 1995, dated 1999).

Experiment [1] has as its system salicylic acid binding protein. Description: Effect of antioxidants on salicylic acid binding activity. Further details: species or system tobacco. To be noted: 20 mM citrate, 5 mM MgCl, 10% glycerol pH 6.5, FIG. 5. The protocol:
This was measured in buffers containing 20 mM citrate, 5 mM MgCl and 10% glycerol pH 6.5 in addition to the indicated concentrations of antioxidant.
A key element during the characterization and the purification process is a simple, inexpensive, sensitive and reliable method for determining the salicylic acid binding activity. For this purpose, spin-column exclusion chromatography was used to separate the bound [^14 C] salicylic acid (excluded) from the bulk free salicylic acid (included). Specifically, a 1.5 ml Eppendorf tube was punctured at the tip with a 20-gauge needle and a small amount of glass wool was added to cover the small hole. The tube was then filled with Bio-Gel P-6DG desalting gel (exclusion limit 6 KDa; purchased from Bio-Rad, Melville, N.Y.) which have been swollen in water. An alternative gel is Sephadex G-25 fine (from Pharmacia, Piscataway, N.J.). Excess liquid in the gel was removed and centrifuged for 5 minutes at full speed in a Dynamic centrifuge (Becton Dickinson). The process was then repeated several times until the gel filled the tube. After incubation of an aliquot of the extract or column fractions for 2 hr at 4° C. with 5 μM-20 μM [^14 C salicylic acid] (specifically radioactivity 55 Ci/mol; purchased from New England Nuclear), 150 μl of proteins binding sample was loaded onto the tube column, which was then rapidly centrifuged for 2 minutes at full speed and the solution of proteins and bound [^14 C-salicylic acid] that was excluded from the gel was collected into another tube that had been placed under the tube column during the centrifugation. One hundred microliters of this solution was then used to determine the amount of bound salicylic acid. […] For example, to determine the inhibitory effect of various salicylic acid analogues on salicylic acid binding activity, these individual analogues were included in the binding mixture containing both the protein and [^14 C] salicylic acid during the 2 hr incubation, and resulting binding activity was determined in comparison to the activity in the absence of these analogues. […]

The next experiment concerns PR1 genes. The experiment in a line: PR-1 protein/gene expression in tobacco leaves (immunoblot). In kind it is in vivo. To be noted: for Induction of PR-1 protein synthesis / PR-1 gene induction (in words): N.t. cv. Xanthi nc. The protocol:
The level of PR1 protein in tobacco leaves was analyzed by immunoblot analysis to establish biological activity. Three leaf discs (1 cm in diameter) were homogenized in 200 microliters of buffer containing 50 mM Tris (pH 8.0), 1 mM EDTA, 12 mM beta-mercaptoethanol and 10 mg/ml phenylmethylsulfonyl fluoride. The homogenate was centrifuged at full speed for 10 minutes in an Eppendorf microcentrifuge. The supernatant was fractionated with 15% polyacrylamide gel under denatured conditions. Protein blotting was done with a monoclonal antibody specific to PR1 protein and protein-antibody complexes were detected with an ECL kit from Amersham.
PR gene expression is both induced by SA and associated with the development of SAR. Therefore, it was of interest to test whether SA's mechanism of action for the induction of PR genes was via its inhibition of catalases which leads to enhanced H2 O2 levels. To address this question, H2 O2 abundance was artificially raised in tobacco leaves by treating with H2 O2 or compounds which either inhibit the catalase activity, like SA itself, or promote generation of H2 O2 in vivo. […]
On the technique in general: Immunoblotting shows a protein as a band on a membrane.

The next experiment relates to TMV. In kind it is in vivo, tobacco mosaic virus. The conditions noted are these: for Enhanced resistance to TMV infection (reduction in lesion size): N.t. cv. Xanthi nc plants, compared to water-treated control plants. The protocol:
The SA/SAG valves are given in micrograms per gram fresh weight of leaf tissue and represent averages of values from 3-6 treated plants at 6 days past injection. […] For determination of reduction in lesion size, longitudinal halves of 2 leaves on 3-6 plants were injection with chemicals, and six days later the entire leaf was infected with TMV. Twenty lesions were measured on each half of the leaf seven days post infection; the values given represent the average percent reduction in lesion diameter in the treated leaf half compared to the untreated half.

The next experiment concerns catalase. The experiment in a line: In vivo catalase activity in tobacco suspension cells (oxygen electrode). The format is cell-based. The protocol: This was determined by adding increasing concentrations of SA or INA to tobacco suspension cells (derived from cultivar Xanthi nc), as described below. The tobacco suspension cell culture was grown in the dark in MS medium at approximately 22° C. with agitation (160 rpm). Cells were maintained by diluting 10-fold every 5 days. For experimentation, 5 ml of suspension cells obtained 3 days after dilution was transferred to a 25 ml Erlenmeyer flask and agitated (100 rpm) at room temperature in the absence or presence of SA or INA which had been adjusted to pH 5.8. After 1 hr, 1 ml of the treated cell suspension was transferred to 7 ml of fresh MS medium containing SA or INA in a 10 ml beaker (density was approximately 6 mg cells per ml). Cells were maintained in suspension with a magnetic stir bar. In vivo catalase activity was determined by measuring, with an oxygen electrode, the rate of H2 O2 -dependent O2 production immediately after addition of H2 O2 to 10 mM final concentration.

A further experiment has as its system SABP/catalase. Description: Competition with 14C-labeled SA for SABP/catalase in crude leaf extracts. In kind it is binding, tobacco. The conditions noted are these: in vitro.
The next experiment relates to ascorbate peroxidase. Description: Ascorbate peroxidase activity in tobacco leaf extracts. In kind it is biochemical, Nicotiana tabacum cv. Xanthi nc. The conditions noted are these: for % Inhibition of ascorbate peroxidase: 200 μM compound, corrected for quenching of auto oxidation. The protocol:
[…] Two grams of leaves from 6-8 week old tobacco plants (Nicotiana tabacum cv. Xanthi nc) grown at 22° C. in a 14 hr light cycle were homogenized under liquid nitrogen using a pestle and mortar.
To obtain ascorbate peroxidase-containing extracts, the soluble proteins were extracted by grinding the powder in 10 ml of 100 mM potassium phosphate, pH 7, containing […] ascorbate and 1% (weight/volume) polyvinylpyrrolidone, with a small amount of quartz sand. The homogenate was centrifuged at 14,000 g for 5 min. […] The pellet resulting from centrifugation (14,000 g, 15 min.) was resuspended in extraction buffer (100 mM potassium phosphate, pH7, containing 0.25 mM ascorbate and 1% (weight/volume) polyvinylpyrrolidone) and desalted on a PD-10 column (Pharmacia) equilibrated with 50 mM potassium phosphate, pH 7, containing 100 μM ascorbate. The extract was used immediately. […] The amount of protein per assay was 30-50 μg. Oxidation of ascorbate was followed by the decrease in the absorbance at 290 nm.
The values illustrated in FIG. 17 are the mean values for three replicated assays.

For the next experiment, the system named is H2 O2. The experiment in a line: Abundance of H2O2 in treated tobacco leaves. The format is in vivo. The conditions noted are these: FIG. 11. The text has this: The abundance of H2 O2 increased in SA- or 3AT-treated tobacco leaves by 50-60% over the control levels observed in water-treated leaves. […] Thus, elevated levels of H2 O2, and in turn, enhanced oxidative stress in vivo, were consistent with inhibition of catalase activity by SA observed in vitro.

Another experiment has as its system guaiacol peroxidases. Description: Guaiacol peroxidase activity in tobacco leaf extracts. In kind it is biochemical, Nicotiana tabacum cv. Xanthi nc. The protocol:
Inhibition of peroxidase by SA and INA was determined by measuring the enzyme activities in extracts prepared from tobacco leaves in the absence or presence of 100 μM or 1000 μM SA or INA. Two grams of leaves from 6-8 week old tobacco plants (Nicotiana tabacum cv. Xanthi nc) grown at 22° C. in a 14 hr light cycle were homogenized under liquid nitrogen using a pestle and mortar.
Total guaiacol peroxidase activity was extracted with 100 mM potassium phosphate, pH 6.2, containing 1% (weight/volume) polyvinylpyrrolidone. In order to also extract the ionically bound cell wall isozymes, the extraction buffer was supplemented with 600 mM KCl. Extraction and centrifugation steps were as described for ascorbate peroxidase. After removal of cell debris and ammonium sulfate precipitation (85%), the extract was desalted against 50 mM potassium phosphate, pH 6, containing 25% glycerol. The extract could be stored at -20° C. without significant loss of peroxidase activity.
(§1) Guaiacol peroxidase activity was determined by the method of Chance and Maehly (Methods Enzymol. 2: 764 (1955)) using guaiacol as the substrate.
(§2) The formation of tetraguaiacol was monitored at 470 nm. The reaction mixture contained 0.25% guaiacol and 100 mM hydrogen peroxide in 20 mM potassium phosphate, pH 6.2. The amount of protein per 1 ml assay was […]. The reaction was measured for five minutes. The assay for horseradish peroxidase was identical, except that only 0.2-0.5 μg protein was used.

For the next experiment, the target named is T1, horseradish peroxidase (Armoracia rusticana, UniProt P00433).
T1 construct: purchased Sigma
T1 sequence (P00433 31-353): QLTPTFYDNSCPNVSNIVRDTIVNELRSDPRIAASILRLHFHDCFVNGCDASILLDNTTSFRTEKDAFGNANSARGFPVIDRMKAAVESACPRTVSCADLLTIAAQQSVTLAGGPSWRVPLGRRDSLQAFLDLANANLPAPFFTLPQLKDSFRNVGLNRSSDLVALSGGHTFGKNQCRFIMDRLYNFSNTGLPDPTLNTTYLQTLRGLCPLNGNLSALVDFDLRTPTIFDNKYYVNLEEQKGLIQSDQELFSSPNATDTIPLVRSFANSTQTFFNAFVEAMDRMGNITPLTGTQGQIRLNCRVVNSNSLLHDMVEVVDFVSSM
Description: Horseradish peroxidase activity. In kind it is biochemical. The protocol: Horseradish peroxidase (1 mg; obtained from Sigma) was dissolved in 1.5 ml 200 mM potassium phosphate, pH 6.2, containing 150 mM NaCl. Following a 15 minute incubation at room temperature, the enzyme solution was centrifuged (10,000 g, 10 minutes). After buffer exchange (PD-10, equilibrated with 25 mM potassium phosphate, pH 6.2), the protein concentration was adjusted to 0.5 mg/ml.
as §1, §2

On to `O[C@H](CS)[C@H](O)CS` (racemic) [dithiothreitol], for which the “Effect on salicylic acid binding activity of SABP” value (shortened to “Effect”) in experiment [1] is recorded as “affected”.
For `O=C(O)c1cc(Cl)cc(Cl)c1O` [3,5-Dichlorosalicylic acid], the “Induction of PR-1 protein synthesis / PR-1 gene induction (in words)” value in the experiment on PR1 genes is on record as “potent inducers of PR-1 protein synthesis”. In addition, the “Enhanced resistance to TMV infection (reduction in lesion size)” value with TMV is given as “enhanced resistance to TMV infection”. In addition, the “Inhibition of catalase activity in vivo (in words)” value (from here on “Inhibition of catalase activity”) with catalase is “very effectively inhibited catalase activity”. Also, the “Inhibition of binding of 14C-labeled SA to SABP/catalase in vitro (in words)” value in the experiment on SABP/catalase was “very effectively inhibited”. In addition, the “% Inhibition of ascorbate peroxidase” value in the experiment on ascorbate peroxidase is on record as 59 ± 5%.
With `Nc1nc[nH]n1` [3AT, 3-amino-1,2,4-triazole], in the experiment on PR1 genes (tobacco leaves), the “Induction of PR1 gene expression” value is “induced the expression of PR-1 genes”. Besides, the “Increase in abundance of H2O2 over water-treated leaves” value in the experiment on H2 O2 is recorded as 50-60%.
For the compound `O=C(O)c1ccc(Cl)cc1O` [4-Chlorosalicylic acid], the “Induction of PR-1 protein synthesis / PR-1 gene induction (in words)” value with PR1 genes is “potent inducers of PR-1 protein synthesis”. In the experiment with TMV, the “Enhanced resistance to TMV infection (reduction in lesion size)” value is reported as “enhanced resistance to TMV infection”. Moreover, the “Inhibition of catalase activity” value in the experiment with catalase is listed as “very effectively inhibited catalase activity”. Moreover, in the experiment on SABP/catalase, the “Inhibition of binding of 14C-labeled SA to SABP/catalase in vitro (in words)” value is on record as “very effectively inhibited”. In the experiment with ascorbate peroxidase, the “% Inhibition of ascorbate peroxidase” value is 58 ± 4%.
Regarding `O=C(O)c1cc(Cl)ccc1O` [5-Chlorosalicylic acid], the “Induction of PR-1 protein synthesis / PR-1 gene induction (in words)” value with PR1 genes is “potent inducers of PR-1 protein synthesis”. The “Enhanced resistance to TMV infection (reduction in lesion size)” value with TMV was “enhanced resistance to TMV infection”. The “Inhibition of catalase activity” value in the experiment with catalase was “very effectively inhibited catalase activity”. Besides, the “Inhibition of binding of 14C-labeled SA to SABP/catalase in vitro (in words)” value with SABP/catalase was “very effectively inhibited”. In addition, the “% Inhibition of ascorbate peroxidase” value in the experiment on ascorbate peroxidase is reported as 73 ± 5%.
In general, Inhibition refers to the drop in the measured response relative to a control, in per cent. A lower Inhibition goes with a weak effect. As a reminder, the inhibition is the drop in the measured response relative to a control, in per cent. A higher inhibition goes with strong suppression. With `O=C(O)c1cc(Cl)nc(Cl)c1` [INA, 2,6-dichloroisonicotinic acid], the “Reduction in lesion size (%)” value in the experiment with TMV (TMV infection six days after injection, lesions measured seven days post infection, treated vs untreated leaf half) stood at 72%. In addition, the IC50 at ascorbate peroxidase (750 μM ascorbate, 25 to 500 μM compound, FIG. 17, read-out: Concentration necessary for 50% inhibition (I50) of ascorbate peroxidase) was determined as 95 µM. Further, the Activity is given as 2.25 ± 0.4 μmols of oxidized substrate mi in the experiment on ascorbate peroxidase (APX, 100 μM compound); 0.24 ± 0.2 μmols of oxidized substrate mi in the experiment with ascorbate peroxidase (APX, 1,000 μM compound); 2.8 ± 0.4 μmols of oxidized substrate mi in the experiment on guaiacol peroxidases (POX, 100 μM compound); 2.7 ± 0.4 μmols of oxidized substrate mi with guaiacol peroxidases (POX, 1,000 μM compound); 236 ± 8 μmols of oxidized substrate mi at horseradish peroxidase (HRP, 100 μM compound); 242 ± 16 μmols of oxidized substrate mi at horseradish peroxidase (HRP, 1,000 μM compound). For the same compound, the Inhibition in the experiment with ascorbate peroxidase (APX, 100 μM compound) was determined as 54%; in the experiment with ascorbate peroxidase (APX, 1,000 μM compound), 95%; in the experiment on guaiacol peroxidases (POX, 100 μM compound), 0%; with guaiacol peroxidases (POX, 1,000 μM compound) it was 3%. This compound displayed an inhibition at 100 µM against horseradish peroxidase (HRP, 100 μM compound) of 1%. Further, at horseradish peroxidase (HRP, 1,000 μM compound), the inhibition at 1000 µM came to 0%.
Turning to `O=C1O[C@H]([C@@H](O)CO)C(O)=C1O` [ascorbic acid], the “Effect” value in experiment [1] is reported as “little inhibitory effect”.
As for `OCCS` [beta-mercaptoethanol], the “Effect” value in experiment [1] is reported as “affected”.
